According to patent US7226947B1, “Use of creatine as a fat substitute” (AlzChem Trostberg GmbH, priority 1999, dated 2007):

System: growing hens
Test: Effect of addition of creatine in the feed for growing hens
Type: in vivo
Conditions: 0.2% creatine (0.2 g/kg) added to air-dried feed, growing period of 41 days
Excerpt: The effect of addition of creatine in the feed for growing hens was studied. It was found here that by adding 0.2% creatine […] to the air-dried feed for a growing period of 41 days, an increase in the final weight of 4% compared with previous feeding methods (without creatine addition) was achieved. […] The feed consumption decreased here by about 2–3% in comparison with previous feeding methods.

CN(CC(=O)O)C(=N)N [creatine]
decrease in feed consumption in comparison with previous feeding methods: 2–3%
increase in the final weight compared with previous feeding methods (without creatine addition): 4%
meat quality: improved quality
nature of the increase in weight (meat vs fat; lean body mass index): only by increase in meat, but not by increase in fat
